Reference: patent US5225532A, “Symmetrical bipeptides containing a polyalkylene glycol residue, method of preparation and use in the assay of proteases” (Serbio, priority 1990, dated 1993)
Where a SMILES comes first, the peptide text is derived from it. [ ]: non-standard residue; d: D form. The star is where a group is joined. Cha = N[C@@H](CC1CCCCC1)C(=O)O; dChg = N[C@@H](C(=O)O)C1CCCCC1; pNA = O=[N+]([O-])c1ccc(N*)cc1; dAbu = CC[C@@H](N)C(=O)O; Abu = CC[C@H](N)C(=O)O; Ms = CS(=O)(=O)*

Columns and labels:
Type in all cases: biochemical
[1] = target: Factor Xa (Homo sapiens, UniProt P00742); assay: Enzymic hydrolysis of chromogenic substrate by Factor Xa (ΔOD/min); details: equimolar doses, activity of reference CP 1 taken as 100%
Protocol: (§1) The tripeptide compounds of formula I and their addition salts are useful in the determination of the enzymes involved in hemostasis. In particular, they constitute specific substrates for Factor Xa, plasmin or thrombin. The recommended method of determining these enzymes comprises bringing a given amount of a tripeptide of formula I or of one of its addition salts (at a concentration of the order of 10 mg/ml) into contact, in an appropriate aqueous liquid medium such as a buffered isotonic solution, with a test sample (diluted if appropriate) which may contain the target enzyme, for at least 0.5 h at a temperature of between RT and 40° C., especially 37° C.
(§2) The activity of the tripeptides according to the invention towards enzymes involved in hemostasis was determined by conventional methods such as those described in EP-A-0 280 160 (see page 14), the hydrolysis rate being assessed by the variation in optical density with time (ΔOD/min). The results obtained have been collated in Table II below, where the activity of reference products (CP 1 to CP 3) is specified as being equal to 100% for the sake of convenience.
(§3) Table II below summarizes the results of the comparative tests which were carried out at equimolar doses with the products of the invention and with standard substances, whose activity was taken as being equal to 100%.

[2] = target: Thrombin (Homo sapiens, UniProt P00734); assay: Enzymic hydrolysis of chromogenic substrate by thrombin (ΔOD/min); details: for Activity towards Thrombin (hydrolysis rate relative to reference): equimolar doses, activity of reference CP 2 taken as 100%, hydrolysis rate as ΔOD/min
Protocol: as §1, §2, §3

[3] = target: Plasmin (Homo sapiens, UniProt P00747); assay: Enzymic hydrolysis of chromogenic substrate by plasmin (ΔOD/min); details: equimolar doses, activity of reference CP 3 taken as 100%
Protocol: as §1, §2, §3

Sequence of Plasmin (P00747 581-810 limits assumed, species assumed): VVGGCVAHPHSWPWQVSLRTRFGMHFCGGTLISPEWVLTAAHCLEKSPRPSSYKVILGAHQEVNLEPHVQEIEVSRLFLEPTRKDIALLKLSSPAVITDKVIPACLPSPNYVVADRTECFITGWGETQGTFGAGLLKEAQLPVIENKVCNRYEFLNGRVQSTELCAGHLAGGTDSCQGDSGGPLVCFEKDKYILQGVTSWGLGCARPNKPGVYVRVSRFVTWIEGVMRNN
Sequence of Plasmin (P00747 97-580 partner limits assumed, species assumed): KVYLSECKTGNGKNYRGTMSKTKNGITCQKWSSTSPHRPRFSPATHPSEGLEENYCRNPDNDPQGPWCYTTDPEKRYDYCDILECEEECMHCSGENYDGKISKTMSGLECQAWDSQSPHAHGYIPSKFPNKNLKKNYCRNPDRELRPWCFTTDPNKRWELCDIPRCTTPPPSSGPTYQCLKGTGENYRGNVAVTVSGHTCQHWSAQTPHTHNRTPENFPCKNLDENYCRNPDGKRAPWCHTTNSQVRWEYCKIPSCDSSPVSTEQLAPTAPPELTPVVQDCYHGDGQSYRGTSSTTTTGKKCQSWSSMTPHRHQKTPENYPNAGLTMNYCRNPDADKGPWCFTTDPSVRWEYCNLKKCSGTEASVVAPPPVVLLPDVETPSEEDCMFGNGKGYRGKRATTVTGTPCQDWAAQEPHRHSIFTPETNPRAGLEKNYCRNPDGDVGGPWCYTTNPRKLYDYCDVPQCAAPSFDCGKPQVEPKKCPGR
Sequence of Factor Xa (P00742 235-488 limits assumed): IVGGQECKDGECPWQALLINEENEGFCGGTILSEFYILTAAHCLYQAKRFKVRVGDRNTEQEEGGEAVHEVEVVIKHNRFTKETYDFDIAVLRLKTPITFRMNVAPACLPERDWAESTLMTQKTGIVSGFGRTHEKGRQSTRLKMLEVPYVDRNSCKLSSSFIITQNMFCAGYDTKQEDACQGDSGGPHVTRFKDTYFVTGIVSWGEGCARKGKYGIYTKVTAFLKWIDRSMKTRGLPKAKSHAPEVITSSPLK
Sequence of Factor Xa (P00742 41-179 partner limits assumed): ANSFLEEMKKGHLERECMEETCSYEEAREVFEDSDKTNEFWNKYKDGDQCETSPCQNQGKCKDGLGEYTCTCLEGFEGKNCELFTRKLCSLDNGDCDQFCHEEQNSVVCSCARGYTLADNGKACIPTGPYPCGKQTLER

Compound	Activity towards Xa (hydrolysis rate relative to reference) [1] [%]	Activity towards Thrombin (hydrolysis rate relative to reference) [2] [%]	Activity towards Plasmin (hydrolysis rate relative to reference) [3] [%]	Sensitivity towards thrombin compared with reference substrate ([2]; in words, versus CP 1 as printed)
CC(C)C[C@@H](NS(C)(=O)=O)C(=O)NCC(=O)N[C@@H](CCCNC(=N)N)C(=O)Nc1ccc([N+](=O)[O-])cc1 [CP 1, MeSO2D-Leu--GlyL-Arg-pNA.AcOH, reference compound] (Ms-[dL]-Gly-Arg-pNA)	100	18	30	–
CC[C@H](NC(=O)[C@H](N)C1CCCCC1)C(=O)N[C@@H](CCCNC(=N)N)C(=O)Nc1ccc([N+](=O)[O-])cc1 [CP 2, HD-CHG-L-Abu-L-Arg-pNA.2AcOH, reference compound] (H-[dChg]-[Abu]-Arg-pNA)	14	100	77	–
CC[C@@H](N)C(=O)N[C@@H](CC1CCCCC1)C(=O)N[C@@H](CCCNC(=N)N)C(=O)Nc1ccc([N+](=O)[O-])cc1 [CP 3, HD-Abu-L-CHA-L-Arg-pNA.2AcOH, reference compound] (H-[dAbu]-[Cha]-Arg-pNA)	14	10	100	–
PEG200 (D-Leu-Gly-L-Arg-pNA)2.2AcOH [Ex. 6]	105	23	188	–
PEG200 (D-Nle-L-CHA-L-Arg-pNA)2.2AcOH [Ex. 5]	20	110	15	more sensitive than the reference substrate CP 1
PEG300 (D-Leu-Gly-L-Arg-pNA)2.2AcOH [Ex. 8]	60	25	150	–
PEG600 (CO-Gly-L-Pro-L-Arg-pNA)2 [Ex. 3]	10	50	122	–

The next lines start with results.

Activity towards Xa (hydrolysis rate relative to reference) [1] [%]	Activity towards Thrombin (hydrolysis rate relative to reference) [2] [%]	Activity towards Plasmin (hydrolysis rate relative to reference) [3] [%]	Compound	Sensitivity towards thrombin compared with reference substrate ([2]; in words, versus CP 1 as printed)
45	21	112	PEG200 (CO-D-CHA-Gly-L-Arg-pNA)2 [Ex. 7]	–
11	45	289	PEG200 (D-Glu(OBzl)-L-Pro-L-Arg-pNA)2.2AcOH [Ex. 4]	–
6	34	130	PEG200 (Gly-L-Pro-L-Arg-pNA)2.2AcOH [Ex. 2]	–
74	34	165	PEG400 (D-Leu-Gly-L-Arg-pNA)2.2AcOH [Ex. 9]	–
